Earlier results as cited in US20140127291A1, “EXTENDED RELEASE ACETAMINOPHEN LIQUID PHARMACEUTICAL COMPOSITIONS” (MAYNE PHARMA INTERNATIONAL PTY LTD, priority 2011, published 2014).

Legend:
[1] = in vivo

half life [1]: 1 to 4 h
saturation concentration in water: about 14 mg/ml
SMILES: CC(=O)Nc1ccc(O)cc1 [acetaminophen]
